Measured values taken from patent US20230374007A1, “COMPOUNDS AND THEIR USE IN TREATING CANCER” (AstraZeneca AB, priority 2020, published 2023).

Target: T1, cereblon (CRBN)—DNA damage protein 1 (DDB1) complex (Homo sapiens, UniProt Q96SW2)
T1 construct: encoding amino acid residues 1 to 442 (Uniprot Q96SW2); hexahistidine (N); thrombin cleavage site (N); made in house; host or cells: Sf9 insect cells (baculovirus co-infection)
Test: Cereblon HTRF binding assay
Description: The synthesized sequence was designed to encode an N-terminal hexahistidine tag, a thrombin cleavage site, an AviTag™ and a tobacco etch virus protease (TEV) cleavage site followed by the CBRN sequence. The resulting protein sequence is listed below.
The synthesized sequence was designed to encode an N-terminal hexahistidine tag, a tobacco etch virus protease (TEV) cleavage site followed by the DDB1 sequence. […] The linker amino acid residues are underlined and shown in italics.
Baculovirus production of CBRN and DDB1: Recombinant bacmid and P2 virus of CBRN and DDB1 was generated according to the Bac-to-Bac Baculovirus Expression System manual (ThermoFisher Scientific).
Protein Purification: Protein purification was initiated by thawing cells (resuspended in Lysis buffer) at r.t. Once thawed, NaCl was added to a final concentration of 200 mM, followed by 0.01 μL/mL Benzonase™ and the lysate was incubated with slow stirring for 20 minutes. After the freeze-thaw lysis, the whole cell lysate was centrifuged at 48 000 g for 45 minutes and all following purification steps were done on ice or in cold-room. Supernatant (cell lysate) was mixed with 1 mL/50 mL lysate Ni Sepharose™ 6 Fast Flow (Cytiva) pre-equilibrated with Wash buffer (50 mM Tris-Cl pH 8, 20 mM Imidazole, 500 mM NaCl, 10% Glycerol, 1 mM TCEP) and incubated with slow stirring for 1 h. The mix was loaded in a 70 mL open gravity flow column, washed with 10 bed volumes of Wash buffer, and stepwise eluted with 300 mM imidazole in Wash buffer. […] After biotinylation, the CBRN/DDB1 complex was purified by Size Exclusion Chromatography on a HiLoad™ 26/60 Superdex™ 200 column equilibrated in SEC buffer (50 mM HEPES pH 7.5, 200 mM NaCl, 5% glycerol, 1 mM TCEP) before flash-freezing in liquid nitrogen and storage at −80° C.
The assay mixture in a total volume of 4 μL consists of 50 mM Tris-HCl at pH 7.5, 100 mM NaCl, 0.01% Pluronic F127, 1 mM TCEP, 500 μM EDTA, 0.2 nM CRBN-DDB1, 0.2 nM terbium cryptate labeled streptavidin, and 2 nM Cyanine 5-labeled lenalidomide as the probe. […] Reagents were dispensed into the 384-well assay microplate using a Certus Flex liquid dispenser. After incubation for 2 h at r.t., the assay plates were read on a PHERAstar FSX plate reader (BMG Labtech) in the HTRF mode. The raw data from PHERAstar was directly imported into Genedata Screener for analysis. […] The ratio was normalized to positive and negative controls on the same plates to calculate percent inhibition: I %=(I−NC)/(PC−NC), where I are readings from the compound treated well, NC and PC are average readings from negative control wells and positive control wells, respectively. IC50 values were obtained by fitting the I % vs. compound concentration [I] to I %=S0+(SInf−S0)/(1+((IC50/[I])^n)), where S0 is the fitted activity level at zero concentration of test compound, SInf is the fitted activity level at […] concentration of test compound, and n is the hill coefficient of the curve.
The IC50 values reported below are the calculated mean result of one or more experiments.

T1 sequence (Q96SW2 with tags, fused parts or gaps): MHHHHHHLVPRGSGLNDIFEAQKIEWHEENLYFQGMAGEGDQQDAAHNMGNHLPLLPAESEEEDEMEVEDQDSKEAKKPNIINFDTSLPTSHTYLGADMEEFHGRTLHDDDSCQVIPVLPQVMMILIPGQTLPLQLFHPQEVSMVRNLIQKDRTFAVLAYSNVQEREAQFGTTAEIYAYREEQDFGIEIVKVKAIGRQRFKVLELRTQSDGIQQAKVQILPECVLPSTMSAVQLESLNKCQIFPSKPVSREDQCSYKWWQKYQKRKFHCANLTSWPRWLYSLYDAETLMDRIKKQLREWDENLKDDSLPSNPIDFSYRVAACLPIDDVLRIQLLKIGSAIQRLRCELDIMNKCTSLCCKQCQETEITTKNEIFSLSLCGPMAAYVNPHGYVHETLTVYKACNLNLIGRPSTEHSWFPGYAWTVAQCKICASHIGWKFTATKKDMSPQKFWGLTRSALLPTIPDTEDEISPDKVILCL

| SMILES | IC50 [µM] |
| --- | --- |
| CN1CCc2ccc(N3CCC(=O)NC3=O)cc2C1 [Example 29, 1-(2-Methyl-1,2,3,4-tetrahydroisoquinolin-7-yl)dihydropyrimidine-2,4 (1H,3H)-dione] | 8.01 |
| CC(=O)N1CCN(c2c[nH]c3cc(N4CCC(=O)NC4=O)ccc23)CC1 [Example 73, 1-(3-(4-Acetylpiperazin-1-yl)-1H-indol-6-yl)dihydropyrimidine-2,4 (1H,3H)-dione] | 0.963 |
| O=C1CCN(c2cccc3[nH]ccc23)C(=O)N1 [Example 18, 1-(1H-Indol-4-yl)dihydropyrimidine-2,4 (1H,3H)-dione] | 0.347 |
| CC(=O)N1CCN(c2c[nH]c3ccc(N4CCC(=O)NC4=O)cc23)CC1 [Example 79, 1-(3-(4-Acetylpiperazin-1-yl)-1H-indol-5-yl)dihydropyrimidine-2,4 (1H,3H)-dione] | 1.98 |
| O=C(O)Cc1c[nH]c2cc(N3CCC(=O)NC3=O)ccc12 [Example 65, 2-(6-(2,4-Dioxotetrahydropyrimidin-1 (2H)-yl)-1H-indol-3-yl)acetic acid] | 0.755 |
| O=C1CCN(c2cnc3cnoc3c2)C(=O)N1 [Example 36, 1-(Isoxazolo[4,5-b]pyridin-6-yl)dihydropyrimidine-2,4 (1H,3H)-dione] | 0.115 |
| O=C1CCN(c2ccc3ccn(C4CCNCC4)c3c2)C(=O)N1 [Example 120, 1-(1-(Piperidin-4-yl)-1H-indol-6-yl)dihydropyrimidine-2,4 (1H,3H)-dione] | 2.21 |
| O=C1CCN(c2ccc3nc(C4CCNCC4)oc3c2)C(=O)N1 [Example 96, 1-(2-(Piperidin-4-yl)benzo[d]oxazol-6-yl)dihydropyrimidine-2,4 (1H,3H1)-dione] | 3.74 |
| O=C1CCN(c2c(Cl)ccc3[nH]ccc23)C(=O)N1 [Example 64, 1-(5-Chloro-1H-indol-4-yl)dihydropyrimidine-2,4 (1H,3H)-dione] | 0.078 |
| O=C1CCN(c2ccc3cc4n(c3c2)CCNC4)C(=O)N1 [Example 102, 1-(1,2,3,4-Tetrahydropyrazino[1,2-a]indol-7-yl)dihydropyrimidine-2,4 (1H,3H)-dione] | 0.274 |
| CN1CCC(n2ncc3cc(N4CCC(=O)NC4=O)ccc32)CC1 [Example 108, 1-(1-(1-Methylpiperidin-4-yl)-1H-indazol-5-yl)dihydropyrimidine-2,4 (1H,3H)-dione] | 3.81 |
| O=C1CCN(c2ccn3ccnc3c2)C(=O)N1 [Example 7, 1-(Imidazo[1,2-a]pyridin-7-yl)dihydropyrimidine-2,4 (1H,3H)-dione] | 3 |
| CN1CCn2c(cc3ccc(N4CCC(=O)NC4=O)cc32)C1 [Example 103, 1-(2-Methyl-1,2,3,4-tetrahydropyrazino[1,2-a]indol-7-yl)dihydropyrimidine-2,4 (1H,3H)-dione] | 0.682 |
| O=C1CCN(c2ccc3c(c2)NCCC3)C(=O)N1 [Example 32, 1-(1,2,3,4-Tetrahydroquinolin-7-yl)dihydropyrimidine-2,4 (1H,3H)-dione] | 1.23 |
| O=C1CCN(c2ccc3[nH]ncc3c2)C(=O)N1 [Example 35, 1-(1H-Indazol-5-yl)dihydropyrimidine-2,4 (1H,3H)-dione] | 2.97 |
| COc1c(N2CCC(=O)NC2=O)ccc2cc[nH]c12 [Example 62, 1-(7-Methoxy-1H-indol-6-yl)dihydropyrimidine-2,4 (1H,3H)-dione] | 2.14 |
| Cc1c(N2CCC(=O)NC2=O)c(F)cc2cc[nH]c12 [Example 58, 1-(5-Fluoro-7-methyl-1H-indol-6-yl)dihydropyrimidine-2,4 (1H,3H)-dione] | 0.288 |
| O=C1CCN(c2ccc3ccoc3c2)C(=O)N1 [Example 1, 1-(Benzofuran-6-yl)dihydropyrimidine-2,4 (1H,3H)-dione] | 2.1 |
| O=C1CCN(c2ccc3c(N4CCNCC4)noc3c2)C(=O)N1 [Example 93, 1-(3-(Piperazin-1-yl)benzo[d]isoxazol-6-yl)dihydropyrimidine-2,4 (1H,3H)-dione] | 12.8 |

| SMILES | IC50 [µM] |
| --- | --- |
| O=C1CCN(c2ccc3c(c2)cc2n3CCNC2)C(=O)N1 [Example 104, 1-(1,2,3,4-Tetrahydropyrazino[1,2-a]indol-8-yl)dihydropyrimidine-2,4 (1H,3H)-dione] | 0.283 |
| CN1CCC(c2c[nH]c3cc(N4CCC(=O)NC4=O)ccc23)CC1 [Example 117, 1-(3-(1-Methylpiperidin-4-yl)-1H-indol-6-yl)dihydropyrimidine-2,4 (1H,3H)-dione] | 2.16 |
| O=C1CCN(c2cccc3[nH]c(C4CCNCC4)cc23)C(=O)N1 [Example 86, 1-(2-(Piperidin-4-yl)-1H-indol-4-yl)dihydropyrimidine-2,4 (1H,3H)-dione] | 0.291 |
| Cc1c(-n2ccc(=O)[nH]c2=O)cnc2cc[nH]c12 [Example 48, 1-(7-Methyl-1H-pyrrolo[3,2-b]pyridin-6-yl)pyrimidine-2,4 (1H,3H)-dione] | 1.97 |
| O=C1CCN(c2ccc3ncsc3c2)C(=O)N1 [Example 9, 1-(Benzo[d]thiazol-6-yl)dihydropyrimidine-2,4 (1H,3H)-dione] | 5.35 |
| Cc1c(N2CCC(=O)NC2=O)ccc2cc[nH]c12 [Example 57, 1-(7-Methyl-1H-indol-6-yl)dihydropyrimidine-2,4 (1H,3H)-dione] | 0.096 |
| CN1CCc2cc(N3CCC(=O)NC3=O)ccc21 [Example 21, 1-(1-Methylindolin-5-yl)dihydropyrimidine-2,4 (1H,3H)-dione] | 0.784 |
| CC(=O)N1CCC(n2ccc3cc(N4CCC(=O)NC4=O)ccc32)CC1 [Example 115, 1-(1-(1-Acetylpiperidin-4-yl)-1H-indol-5-yl)dihydropyrimidine-2,4 (1H,3H)-dione] | 0.933 |
| O=C1CCN(c2ccc3c(ccn3C3CCNCC3)c2)C(=O)N1 [Example 113, 1-(1-(Piperidin-4-yl)-1H-indol-5-yl)dihydropyrimidine-2,4 (1H,3H)-dione] | 1.08 |
| O=C1CCN(c2ccc3nc(N4CCNCC4)oc3c2)C(=O)N1 [Example 98, 1-(2-(Piperazin-1-yl)benzo[d]oxazol-6-yl)dihydropyrimidine-2,4 (1H,3H)-dione] | 3.12 |
| O=C1CCN(c2ccc3nn[nH]c3c2)C(=O)N1 [Example 38, 1-(1H-Benzo[d][1,2,3]triazol-6-yl)dihydropyrimidine-2,4 (1H,3H)-dione] | 0.566 |
| CNC(=O)Cc1cc2ccc(N3CCC(=O)NC3=O)cc2[nH]1 [Example 67, 2-(6-(2,4-Dioxotetrahydropyrimidin-1 (2H)-yl)-1H-indol-2-yl)-N-methylacetamide] | 0.974 |
| Cn1cc(N2CCNCC2)c2ccc(N3CCC(=O)NC3=O)cc21 [Example 74, 1-(1-Methyl-3-(piperazin-1-yl)-1H-indol-6-yl)dihydropyrimidine-2,4 (1H,3H)-dione] | 3.81 |
| O=C1CCN(c2cc(Cl)c3cc[nH]c3c2)C(=O)N1 [Example 53, 1-(4-Chloro-1H-indol-6-yl)dihydropyrimidine-2,4 (1H,3H)-dione] | 0.244 |
| O=C1CCN(c2cccc3ncoc23)C(=O)N1 [Example 4, 1-(Benzo[d]oxazol-7-yl)dihydropyrimidine-2,4 (1H,3H)-dione] | 3.88 |
| Cn1ncc2cc(N3CCC(=O)NC3=O)ccc21 [Example 6, 1-(1-Methyl-1H-indazol-5-yl)dihydropyrimidine-2,4 (1H,3H)-dione] | 3.93 |
| O=C1CCN(c2ccc3[nH]ccc3c2)C(=O)N1 [Example 56, 1-(1H-Indol-5-yl)dihydropyrimidine-2,4 (1H,3H)-dione] | 0.341 |
| O=C1CCN(c2ccc(N3CCNCC3)c3[nH]ccc23)C(=O)N1 [Example 123, 1-(7-(Piperazin-1-yl)-1H-indol-4-yl)dihydropyrimidine-2,4 (1H,3H)-dione] | 0.597 |
| O=C1CCN(c2ccc3c(c2)CCN3)C(=O)N1 [Example 20, 1-(Indolin-5-yl)dihydropyrimidine-2,4 (1H,3H)-dione] | 0.357 |
